Results on 18 compounds are retold here after patent publication US20130005739A1, “PHARMACEUTICAL PREPARATIONS COMPRISING A COS RELEASING COMPOUND” (LUDWIG BOLTZMANN CLUSTER FUER KARDIOVASKULAERE FORSCHUNG, priority 2009, published 2013).

A word on the EC50: it is the concentration that produces a half-maximal response. In general, melting point refers to the temperature, or range, at which the solid turns liquid.

The test system of one data set is aorta. Description: Isometric contraction force of isolated aortic rings precontracted by KCl. Particulars: for EC50: Cavia porcellus, aortic rings precontracted by 90 mmol/l KCl, Krebs-Henseleit solution, 37°C. In kind it is cell-based, guinea pigs. The protocol:
(§1) The COS-releasing compounds according to the present invention were tested on isolated muscle-preparations of the aorta, arteria pulmonalis, terminal ileum, papillary muscle and the right atrium (derived from guinea pigs) for their vasodilatory effect.
(§2) Guinea pigs of both sexes (340-480 g) were killed with a blow on the neck. After excision of the heart, the aorta and the ileum were dissected. The aorta was cleaned of loosely adhering fat and connective tissue and cut into rings of 2 mm width. The terminal portion of the ileum was removed and the 10 cm nearest to the caecum were discarded. The intestine was placed in a nutrient solution. The intestine was cleaned by flushing with nutrient solution and cut into pieces of 2 to 3 cm length. The arteria pulmonalis was dissected close to the heart, cleaned and cut into rings of 2 mm width. Papillary muscles were dissected from the right ventricle for contractility measurements. Purkinje fibres were carefully removed to prevent spontaneous activity. Only muscles with a diameter of less than 0.87 mm were used in order to have a sufficient oxygen supply. Chronotropic activity was tested on guinea-pig isolated right atria.
(§3) After isolation the preparations (aortic rings, terminal ilea, arteria pulmonalis rings, papillary muscles and right atria) were stored at room temperature in gassed (95% O2-5% CO2) Krebs-Henseleit solution with the following composition (in mmol/l): NaCl 114.9, KCl 4.73, CaCl2 3.2, MgSO4 1.18, NaHCO3, 24.9, KH2PO4 1.18, glucose 10; pH 7.2-7.4.
(§4) Isometric contraction force of electrically stimulated papillary muscles (1 Hz), terminal ilea precontracted by 60 mmol/l KCl, aortic and arteria pulmonalis rings precontracted by 90 mmol/l KCl as well as spontaneous activity of right atria was measured by the method described by Reiter (Reiter, M. Bioassay of inotropic agents on the isolated papillary muscle. Arzneim. Forsch. 1967, 17, 1249-1253).
(§5) The preparations were placed in a continuously oxygenated (95% O2 and 5% CO2) bath of 35 ml nutrient solution to guarantee sufficient oxygen supply and appropriate pH as well as circulation of nutrient solution with and without test compound. The experiments were performed at a temperature of 37±1° C. The smooth and heart muscle preparations were connected with one end to a tissue holder and the other to a force transducer (Transbridge™, 4-Channel Transducer Amplifier, World Precision Instruments, Sarasota, Fla., USA). Papillary muscles were electrically driven with an Anapulse Stimulator Model 301-T and an Isolation Unit Model 305-1 (WPI, Hamden, Conn., USA) at a frequency of 1 Hz and a pulse duration of 3 ms. Amplitude of stimulation pulse was adjusted 10% above threshold level. Resting tension of either 3.92 mN (papillary muscles), 10.37 mN (right atria) or 19.6 mN (aortic and arteria pulmonalis rings) was kept constant throughout the experiments.
(§6) Signals were recorded with a chart recorder (BD 112 Dual Channel, Kipp & Zonen) and evaluated. For statistical analyses the arithmetic means and standard error of the mean (SEM) of n experiments were calculated. Statistical significance of the results was evaluated by the Student's t-test for paired observations. EC50-values were graphically determined from the concentration response curves.
(§7) Stock solutions of the compounds were dissolved in distilled water every day and were further diluted with modified Krebs-Henseleit solution to the required concentrations (1, 3, 10, 30 and 100 μmol/l).

A further data set concerns arteria pulmonalis. Description: Isometric contraction force of isolated arteria pulmonalis rings precontracted by KCl. In kind it is cell-based, guinea pigs. Particulars: Cavia porcellus; arteria pulmonalis rings precontracted by 90 mmol/l KCl. How it is done: as §1, §2, §3, §4, §5, §6, §7
For the next data set, the system named is terminal ileum. As to the kind of experiment: Isometric contraction force of isolated terminal ilea precontracted by KCl. In kind it is cell-based, guinea pigs. Particulars: Cavia porcellus; terminal ilea precontracted by 60 mmol/l KCl. The protocol: as §1, §2, §3, §4, §5, §6, §7
For another data set, the system named is papillary muscle. As to the kind of experiment: Isometric contraction force of electrically stimulated papillary muscles. Particulars: Cavia porcellus; electrically stimulated (1 Hz). In kind it is cell-based, guinea pigs. How it is done: as §1, §2, §3, §4, §5, §6, §7
A further data set deals with right atrium. As to the kind of experiment: Spontaneous (chronotropic) activity of isolated right atria. In kind it is cell-based, guinea pigs. Particulars: Cavia porcellus. The protocol: as §1, §2, §3, §4, §5, §6, §7
The next data set relates to isolated mouse heart. Description: Isolated mouse heart, Langendorff perfusion. In kind it is cell-based, female OF-1 mice. How it is done:
Hearts from female OF-1 mice were excised, cannulated and perfused retrogradely, according to the Langendorff technique, with modified oxygenated Krebs-Henseleit-buffer at constant pressure. After 15 min of baseline perfusion, CRC1HCl (10 μM) was administered into the coronary perfusion system for 10 min. Coronary flow (CF), heart rate (HR), aortic pressure (AoP), concentrations of K^+, Na^+, Ca^2+ and the pH-value were monitored throughout the whole experiment (CRC1HCl-group, n=8; control group, n=8).
In a second set of experiments in the setup as described above, nitro-L-arginine (L-NA) (n=6) and PNU-37883A (n=4) were evaluated as potential inhibitors of CRC1HCl (10 μM) activity. The compounds were added to final concentrations of 100 μM (L-NA) and 10 μM (PNU-37883A).
Also, the myocardial consumption of lactate and glucose was monitored in both the control-group and the CRC1HCl-group.

The test system of data set [1] is smooth muscle preparations. As to the kind of experiment: Vasodilatory activity on smooth muscle preparations (preparation not specified). In kind it is cell-based, guinea pigs. Particulars: for EC50: Cavia porcellus, setup of 4.3, preparation not specified, read-out: EC50 vasodilatory activity (negative controls); for vasodilatory activity on smooth muscle preparations: setup of 4.3, aqueous solution. The protocol:
as §1, §2, §3, §4, §5, §6, §7
Compounds CRC59, CRC59HCl, CRC60 and CRC60HCl as indicated in the table below were used as negative controls in the present experimental setup. Due to the exchange of sulfur against oxygen, said compounds are not able to release COS.

Data set [2] is described as follows: Stability in aqueous solution (concluded from inactivity in aqueous setup). Particulars: conditions of 4.3. In kind it is physicochemical. From the text:
Some of the COS releasing compounds according to formula (I) may, however, release COS in a spontaneous hydrolysis reaction due to the presence of H2O in aqueous solutions, suspensions, and the like. Said compounds may also be referred to as being “instable compounds” in aqueous solutions. The determination of the stability of COS releasing compounds according to the present invention may easily be determined, e.g. by dissolving a compound to be tested in an aqueous solution and determining the amount of COS released over time.

The test system of the next data set is aortic rings. As to the kind of experiment: Contraction force of aortic rings in blood plasma. In kind it is cell-based, guinea pigs. The conditions noted are these: 100 μM, guinea pig blood plasma, KCl 90 mM, after 60 minutes. The protocol:
Guinea pigs of both sexes (340-480 g) were killed with a blow on the neck. The thorax was opened immediately and heparinized blood was collected. After centrifugation of the blood, the blood plasma was obtained which was used in the further experiments. Further, the aorta of the guinea pigs was excised and prepared as described in 4.3. Thus, the aortic rings were present at room temperature in Krebs-Henseleit solution and put under a resting tension. The contraction force was determined as described under 4.3. A stock solution of CRC80HCl in distilled water was prepared. CRC80HCl was used in a final concentration of 100 μM in the experiments.
In a second experiment, the Krebs-Henseleit solution was exchanged with blood plasma of the guinea pigs gained as described above prior to the addition of CRC80HCl. Thus, the Krebs-Henseleit solution was exchanged by 6 ml blood plasma and KCl was added 15 minutes later to a final concentration of 90 mM. Once a steady state was reached, CRC80HCl was added to a final concentration of 100 μM and the contraction force was recorded over a period of 60 minutes. After the period of 60 minutes, a decrease of the contraction force of 39% was observed.

The mark [3] stands for this setting: 10 μM, vs control, data not shown.

As for `CSC(=S)n1ccnc1.Cl` [CRC1HCl], it took 7.8 µM to reach a half-maximal effect with aorta (EC50). Further, a half-maximal effect with arteria pulmonalis (EC50) was put at 6.9 µM. The compound further registered an EC50 in the data set on terminal ileum of 5.7 µM. The response with papillary muscle was half-maximal at 78 µM (EC50). For the same compound, in the data set with right atrium, the EC50 was > 100 µM. Moreover, in the data set on isolated mouse heart (10 μM for 10 min, vs control), the “aortic pressure (AoP)” value is given as “not significantly affected or altered”, the “concentration of Ca2+ in coronary effusate” value was “not significantly affected or altered”, the “concentration of K+ in coronary effusate” value is reported as “not significantly affected or altered” and the “concentration of Na+ in coronary effusate” value is listed as “not significantly affected or altered”. In the data set on isolated mouse heart (10 μM for 10 min, vs control), the “heart rate (HR)” value is reported as “not significantly affected or altered” and the “pH-value of coronary effusate” value was “not significantly affected or altered”. The “coronary flow (CF)” value with isolated mouse heart (10 μM for 10 min, during and 30 minutes after administration, vs control, p<0.05) is “significantly increased”. In the data set with isolated mouse heart (setting [3]), the “myocardial consumption of glucose” value is “not significantly affected or altered” and the “myocardial consumption of lactate” value is reported as “not significantly affected or altered”. Also, in the data set on isolated mouse heart (CRC1HCl 10 μM with PNU-37883A 10 μM, data not shown), the “effect of inhibition of ATP-sensitive potassium-channels on the vasodilatory effect” value is listed as “had no effect”. For the same compound, in the data set with isolated mouse heart (CRC1HCl 10 μM with nitro-L-arginine 100 μM, data not shown), the “effect of inhibition of nitric oxide synthase on the vasodilatory effect” value is “had no effect”.
Turning to `CSC(=S)n1c(C)nc2ccccc21` [CRC4HCl], the EC50 was 22.8 µM in the data set with aorta; 25.1 µM in the data set on arteria pulmonalis; 25.6 µM in the data set on terminal ileum; > 100 µM with papillary muscle; 56 µM in the data set on right atrium.
On the same counts, the results for `CSC(=S)n1ccnc1C` [CRC5HCl] are 6.3 µM, 11.2 µM, 9.5 µM, > 100 µM and > 100 µM.
The compound `COc1ccc2ncn(C(=S)SC)c2c1` [CRC6] registered a melting point of 64 to 87 °C.
For `S=C(SCc1ccccc1)n1ccnc1` [CRC8HCl], the EC50 was 20.1 µM in the data set on aorta; 63 µM with arteria pulmonalis; 15.3 µM in the data set with terminal ileum; 26 µM with papillary muscle; > 100 µM in the data set with right atrium.
The corresponding values for `Cc1nccn1C(=S)SCc1ccccc1` [CRC9HCl] are 3.36 µM, 10.5 µM, 17.2 µM, > 100 µM and 15.3 µM.
As to `COc1ccc(CSC(=S)n2ccnc2)cc1` [CRC10HCl], the 50% effective concentration (EC50) in the data set with aorta is 12.8 µM; in the data set with arteria pulmonalis, 24 µM; in the data set with terminal ileum, 100 µM; with papillary muscle, > 100 µM; in the data set with right atrium, > 100 µM.
Take `CCOC(=O)CCSC(=S)n1ccnc1` [CRC11HCl]: the EC50 in the data set on aorta is 16 µM; in the data set with arteria pulmonalis it was 19.8 µM; in the data set on terminal ileum, 32.1 µM; with papillary muscle, > 100 µM; in the data set on right atrium it was > 100 µM.
As to `CC(=O)OCCSC(=S)n1ccnc1` [CRC13HCl], the EC50 was 5.75 µM in the data set on aorta; 24 µM with arteria pulmonalis; 100 µM in the data set with terminal ileum; 77 µM in the data set with papillary muscle; > 100 µM with right atrium.
`COc1cc(CSC(=S)n2ccnc2)cc(OC)c1OC` [CRC33] had a melting point of 110 to 113 °C. The compound further showed an EC50 with aorta of 2.98 µM. The compound further came in with an EC50 in the data set on arteria pulmonalis of 7.9 µM. The 50% effective concentration (EC50) with terminal ileum stood at 15.3 µM. The EC50 in the data set on papillary muscle is > 100 µM. Besides, the EC50 in the data set with right atrium turned out to be 26.5 µM.
Consider `Cl.O=C(OC1CCCCC1)n1ccnc1` [CRC59HCl], for which, in data set [1], the EC50 is > 100 µM and the “vasodilatory activity on smooth muscle preparations” value is listed as “did not show vasodilatory activity”.
Take `O=C(OC1CCCCC1)n1ccnc1` [CRC59]: the “vasodilatory activity on smooth muscle preparations” value in data set [1] was “did not show vasodilatory activity”.
In the case of `CC(C)OC(=O)n1ccnc1.Cl` [CRC60HCl], in data set [1], the EC50 is > 100 µM and the “vasodilatory activity on smooth muscle preparations” value is given as “did not show vasodilatory activity”.
For the compound `CC(C)OC(=O)n1ccnc1` [CRC60], the “vasodilatory activity on smooth muscle preparations” value in data set [1] is recorded as “did not show vasodilatory activity”.
As to `S=C(N1CCN(C(=S)n2ccnc2)CC1)n1ccnc1` [CRC66], the melting point was in the range of 225 to 226 °C.
Turning to `CN(C)CCOC(=S)OCCN(C)C.Cl.Cl` [CRC72HCl], the “vasodilatory activity on smooth muscle preparations” value in data set [1] is “inactive”. Also, the “stability in aqueous solutions” value in data set [2] is recorded as “stable in aqueous solutions”.
`CCOC(=S)OCCCN(C)C.Cl` [CRC80HCl]: in the data set with aorta (100 μM, period of 45 minutes), the “vasodilatory activity on the aortic ring in Krebs-Henseleit solution” value was “did not show a vasodilatory activity”. Moreover, in the data set on aortic rings, the “decrease of the contraction force” value is given as 39%.
Consider `S` [H2S, hydrogen sulfide, reference compound], for which the concentration for a half-maximal effect (EC50) in the data set with aorta turned out to be 107 µM.
